Patent publication US12403150B2, “Tryptamine compositions for enhancing neurite outgrowth” (priority 2019, dated 2025)
Entries after “also recorded” stand apart in the source; their conditions may differ. Where two headings read alike, the source gives them in different places.

Assays:
5-HT2A receptor = 5-HT2A receptor (Homo sapiens, UniProt P28223); conditions: cited from earlier work
[1] = system: inflammation in the lungs; conditions: in vivo; cited from earlier work
[2] = system: Rat Induced Pluripotent Stem Cell (iPSC) Neuron Culture / cortical neurons from rat embryo; assay type: cell-based; conditions: for Neurite length per neuron, % of control, Avg. / Neurite length per neuron, Length (μm), Avg. / Neurites per neuron, % of control, Avg. / Neurites per neuron, Number, Avg.: day 10
Experimental: Experiments were conducted to evaluate the neurotrophic effects of several purified tryptamines, H. erinaceum extracts, and the tryptamines combined with selected extracts of H. erinaceum. The tryptamines, baeocystin, norbaeocystin, and norpsilocin, were evaluated at final concentrations of 0.3 μg/mL, 1 μg/mL, 3 μg/mL, and 10 μg/mL. The experiments analyzed the H. erinaceum growth medium (rice or rice and oat hull fiber), the days of cultivation, the extract solvent (water, ethanol, or ethyl acetate), and the final concentration of the extract (31.3 μg/mL, 62.5 μg/mL, 125 μg/mL or 250 μg/mL). Finally, combinations of the three tryptamines and representative H. erinaceum extracts were combined and evaluated.
Rat Induced Pluripotent Stem Cell (iPSC) Neuron Culture
The following protocol was performed for each independent culture. Six culture experiments were performed for each condition.
Results are expressed as mean (±Standard Deviation).

[3] = system: PC12 cells treated with conditioned media from 1321N1 cells; test: Neurite outgrowth of PC12 cells treated with conditioned media from 1321N1 cells; assay type: cell-based, rat; conditions: conditioned media from treated 1321N1 human astrocytoma cells; n=3
Text: 1321N1 human brain astrocytoma cells are known to excrete neurologically beneficial compounds when stimulated with neurotrophic compounds and fungal extracts including lion's mane (Mori et al., Biological and Pharmaceutical Bulletin, 9:1727-1732 (2008)). While some fungi have well established mechanisms by which they benefit neurological health, little is known about the role of psilocybin analogs specifically. Generally following the protocol of Mori et al., 2008, 1321N1 human astrocytoma cells were treated with psilocybin analogs, and conditioned media was collected and applied to differentiated rat pheochromocytoma PC12 cells to determine the resulting impact on neurite outgrowth.

hallucinogenic effects = conditions: cited from earlier work
[4] = system: nerve growth factor (NGF) protein; test: ELISA of NGF protein in human 1321N1 brain cells; assay type: cell-based; conditions: human 1321N1 cells, compared to a vehicle control; n=3; p<0.05
Text: Accordingly, preliminary research has started to reveal the mechanisms by which psilocybin analogs may confer neurotrophic benefits that facilitate neurite outgrowth.
(§1) See Ly et al., “Psychedelics Promote Structural and Functional Neural Plasticity,” Cell Rep.

IL-10 = test: ELISA of IL-10 in human 1321N1 brain cells; assay type: cell-based
Text: as §1

Chain of 5-HT2A receptor (P28223 whole entry): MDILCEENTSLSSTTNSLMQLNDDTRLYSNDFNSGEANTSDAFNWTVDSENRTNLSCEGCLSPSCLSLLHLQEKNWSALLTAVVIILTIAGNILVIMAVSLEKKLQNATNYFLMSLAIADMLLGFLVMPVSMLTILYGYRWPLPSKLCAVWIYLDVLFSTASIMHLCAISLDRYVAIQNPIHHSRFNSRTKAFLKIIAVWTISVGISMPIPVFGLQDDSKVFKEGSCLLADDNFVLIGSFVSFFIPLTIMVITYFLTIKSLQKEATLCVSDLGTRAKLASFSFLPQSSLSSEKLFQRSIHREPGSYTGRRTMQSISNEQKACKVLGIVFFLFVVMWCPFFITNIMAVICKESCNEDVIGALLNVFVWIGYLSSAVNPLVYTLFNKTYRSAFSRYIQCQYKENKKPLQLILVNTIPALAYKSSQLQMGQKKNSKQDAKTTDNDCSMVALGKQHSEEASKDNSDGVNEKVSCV

| Molecule | Neurite length per neuron, % of control, Avg. ([2]; tryptamine 0.3 μg/mL) | Neurite length per neuron, Length (μm), Avg. ([2]; tryptamine 0.3 μg/mL) [μm] | Neurites per neuron, % of control, Avg. ([2]; tryptamine 0.3 μg/mL) | Neurites per neuron, Number, Avg. ([2]; tryptamine 0.3 μg/mL) | Neurite length per neuron, % of control, Avg. ([2]; tryptamine 1 μg/mL) | Neurite length per neuron, Length (μm), Avg. ([2]; tryptamine 1 μg/mL) [μm] | Neurites per neuron, % of control, Avg. ([2]; tryptamine 1 μg/mL) | Neurites per neuron, Number, Avg. ([2]; tryptamine 1 μg/mL) | Neurite length per neuron, % of control, Avg. ([2]; tryptamine 3 μg/mL) | Neurite length per neuron, Length (μm), Avg. ([2]; tryptamine 3 μg/mL) [μm] | Neurites per neuron, % of control, Avg. ([2]; tryptamine 3 μg/mL) | Neurites per neuron, Number, Avg. ([2]; tryptamine 3 μg/mL) | Neurite length per neuron, % of control, Avg. ([2]; tryptamine 10 μg/mL) | Neurite length per neuron, Length (μm), Avg. ([2]; tryptamine 10 μg/mL) [μm] | Neurites per neuron, % of control, Avg. ([2]; tryptamine 10 μg/mL) | Neurites per neuron, Number, Avg. ([2]; tryptamine 10 μg/mL) | neurite outgrowth in PC12 cells by conditioned media [3] | further results |
| --- | --- | --- | --- | --- | --- | --- | --- | --- | --- | --- | --- | --- | --- | --- | --- | --- | --- | --- |
| COc1cc(C[C@@H](C)N)c(OC)cc1I [(R)-2,5-dimethoxy-4-iodoamphetamine] |  |  |  |  |  |  |  |  |  |  |  |  |  |  |  |  |  | activation of the 5-HT2A receptor (5-HT2A receptor): activate the 5-HT2A receptor; inflammation in the lungs [1]: prevent and reverse inflammation in the lungs |
| CNCCc1c[nH]c2cccc(OP(=O)(O)O)c12 [baeocystin, 4-phosphoryloxy-N-methyltryptamine] | 119.24 % of control | 418.30 | 94.46 % of control | 2.99 | 112.34 % of control | 394.11 | 93.66 % of control | 2.96 | 118.42 % of control | 415.42 | 97.18 % of control | 3.07 | 109.61 % of control | 384.52 | 96.87 % of control | 3.06 | induce neurite outgrowth | hallucinogenic effects after consumption (hallucinogenic effects; 4 mg, anecdotal experience): gentle hallucinogenic experience; hallucinogenic effects after oral consumption (hallucinogenic effects; 10 mg and 20 mg, case studies): did not produce any hallucinogenic effects |
| NCCc1c[nH]c2cccc(OP(=O)(O)O)c12 [norbaeocystin, 4-phosphoryloxy-tryptamine] | 128.69 % of control | 441.86 | 92.67 % of control | 3.09 | 127.25 % of control | 436.93 | 91.64 % of control | 3.06 | 112.13 % of control | 385.00 | 87.02 % of control | 2.90 | 112.67 % of control | 386.86 | 92.01 % of control | 3.07 | induce neurite outgrowth | expression of NGF protein [4]: increased expression of NGF protein; also recorded: induces the expression |
| CNCCc1c[nH]c2cccc(O)c12 [norpsilocin, 4-hydroxy-N-methyl-tryptamine] | 107.70 % of control | 344.09 | 83.77 % of control | 2.80 | 101.13 % of control | 347.25 | 87.18 % of control | 2.91 | 73.80 % of control | 253.40 | 79.36 % of control | 2.65 | 7.65 % of control | 26.28 | 27.71 % of control | 0.92 | induce neurite outgrowth | neurite outgrowth compared with vehicle control and other treatments, in words ([2]; at the concentrations tested): did not perform better than vehicle control; expression of the anti-inflammatory cytokine IL-10 (IL-10): induces the expression |
| BDNF: brain-derived neurotrophic factor, positive control at 50 ng/ml (protein, UniProt P23560 19-247, looked up) Neurotrophic factor BDNF …: APMKEANIRGQGGLAYPGVRTHGTLESVNGPKAGSRGLTSLADTFEHVIEELLDEDQKVRPNEENNKDADLYTSRVMLSSQVPLEPPLLFLLEEYKNYLDAANMSMRVRRHSDPARRGELSVCDSISEWVTAADKKTAVDMSGGTVTVLEKVPVSKGQLKQYFYETKCNPMGYTKEGCRGIDKRHWNSQCRTTQSYVRALTMDSKKRIGWRFIRIDTSCVCTLTIKRGR |  |  |  |  |  |  |  |  |  |  |  |  |  |  |  |  |  | Neurites per neuron, Number, Avg. ([2]; 50 ng/ml, positive control, one value per culture plate): 3.82 |
